Results reported in the NIST ThermoML archive (doi:10.1016/j.jct.2007.09.004).
± gives the expanded uncertainty stated by the source.

Key:
[1] = relative permittivity at zero frequency (dimensionless); xn = mol fraction of the nth substance listed; conditions: 101 kPa, Liquid, Parallel plate capacitor
[2] = xn = mol fraction of the nth substance listed; conditions: 101 kPa, Liquid
[3] = relative permittivity at zero frequency (dimensionless); conditions: 101 kPa, Liquid, Parallel plate capacitor
[4] = 101 kPa, Liquid

For CCCOCCO [2-propoxyethanol] + OCCOCCOCCOCCO, the “relative permittivity at zero frequency” value ([1]; 293.15 K, x1 = 0.05) was 20.13 ± 0.04, the “relative permittivity at zero frequency” value ([1]; 293.15 K, x1 = 0.1) was 19.82 ± 0.04 and the “relative permittivity at zero frequency” value ([1]; 293.15 K, x1 = 0.2) was 19.18 ± 0.04. The “relative permittivity at zero frequency” value ([1]; 293.15 K, x1 = 0.3002) was 18.49 ± 0.04, the “relative permittivity at zero frequency” value ([1]; 293.15 K, x1 = 0.4001) was 17.73 ± 0.04 and the “relative permittivity at zero frequency” value ([1]; 293.15 K, x1 = 0.5003) was 16.88 ± 0.04. The “relative permittivity at zero frequency” value ([1]; 293.15 K, x1 = 0.6) was 15.95 ± 0.04, the “relative permittivity at zero frequency” value ([1]; 293.15 K, x1 = 0.7002) was 14.99 ± 0.04 and the “relative permittivity at zero frequency” value ([1]; 293.15 K, x1 = 0.7999) was 14.01 ± 0.04. For the same molecule, the “relative permittivity at zero frequency” value ([1]; 293.15 K, x1 = 0.9) was 12.96 ± 0.04, the “relative permittivity at zero frequency” value ([1]; 293.15 K, x1 = 0.9501) was 12.38 ± 0.04 and the “relative permittivity at zero frequency” value ([1]; 293.15 K, x1 = 1) was 11.76 ± 0.04. The “relative permittivity at zero frequency” value ([1]; 298.15 K, x1 = 0.05) was 19.58 ± 0.04, the “relative permittivity at zero frequency” value ([1]; 298.15 K, x1 = 0.1) was 19.26 ± 0.04 and the “relative permittivity at zero frequency” value ([1]; 298.15 K, x1 = 0.2) was 18.62 ± 0.04. For the same molecule, the “relative permittivity at zero frequency” value ([1]; 298.15 K, x1 = 0.3002) was 17.95 ± 0.04, the “relative permittivity at zero frequency” value ([1]; 298.15 K, x1 = 0.4001) was 17.21 ± 0.04 and the “relative permittivity at zero frequency” value ([1]; 298.15 K, x1 = 0.5003) was 16.4 ± 0.04. The “relative permittivity at zero frequency” value ([1]; 298.15 K, x1 = 0.6) was 15.53 ± 0.04, the “relative permittivity at zero frequency” value ([1]; 298.15 K, x1 = 0.7002) was 14.61 ± 0.04 and the “relative permittivity at zero frequency” value ([1]; 298.15 K, x1 = 0.7999) was 13.64 ± 0.04. For the same molecule, the “relative permittivity at zero frequency” value ([1]; 298.15 K, x1 = 0.9) was 12.62 ± 0.04, the “relative permittivity at zero frequency” value ([1]; 298.15 K, x1 = 0.9501) was 12.07 ± 0.04 and the “relative permittivity at zero frequency” value ([1]; 298.15 K, x1 = 1) was 11.5 ± 0.04. For the same molecule, the “relative permittivity at zero frequency” value ([1]; 303.15 K, x1 = 0.05) was 19.01 ± 0.04, the “relative permittivity at zero frequency” value ([1]; 303.15 K, x1 = 0.1) was 18.68 ± 0.04 and the “relative permittivity at zero frequency” value ([1]; 303.15 K, x1 = 0.2) was 18.05 ± 0.04. For the same molecule, the “relative permittivity at zero frequency” value ([1]; 303.15 K, x1 = 0.3002) was 17.39 ± 0.04, the “relative permittivity at zero frequency” value ([1]; 303.15 K, x1 = 0.4001) was 16.69 ± 0.04 and the “relative permittivity at zero frequency” value ([1]; 303.15 K, x1 = 0.5003) was 15.91 ± 0.04. The “relative permittivity at zero frequency” value ([1]; 303.15 K, x1 = 0.6) was 15.07 ± 0.04, the “relative permittivity at zero frequency” value ([1]; 303.15 K, x1 = 0.7002) was 14.18 ± 0.04 and the “relative permittivity at zero frequency” value ([1]; 303.15 K, x1 = 0.7999) was 13.24 ± 0.04. For the same molecule, the “relative permittivity at zero frequency” value ([1]; 303.15 K, x1 = 0.9) was 12.26 ± 0.04, the “relative permittivity at zero frequency” value ([1]; 303.15 K, x1 = 0.9501) was 11.73 ± 0.04 and the “relative permittivity at zero frequency” value ([1]; 303.15 K, x1 = 1) was 11.19 ± 0.04. The mass density ([2]; 293.15 K, x1 = 0.05) was 1116.81 ± 1.9 kg/m3, the mass density ([2]; 293.15 K, x1 = 0.0996) was 1109.94 ± 1.8 kg/m3 and the mass density ([2]; 293.15 K, x1 = 0.1997) was 1095.15 ± 1.8 kg/m3. The mass density ([2]; 293.15 K, x1 = 0.3) was 1079.09 ± 1.8 kg/m3, the mass density ([2]; 293.15 K, x1 = 0.4012) was 1061.43 ± 1.7 kg/m3 and the mass density ([2]; 293.15 K, x1 = 0.5) was 1042.6 ± 1.7 kg/m3. It also gave a mass density ([2]; 293.15 K, x1 = 0.6) of 1021.64 ± 1.6 kg/m3, a mass density ([2]; 293.15 K, x1 = 0.7) of 998.51 ± 1.6 kg/m3 and a mass density ([2]; 293.15 K, x1 = 0.8) of 973.03 ± 1.5 kg/m3. The mass density ([2]; 293.15 K, x1 = 0.9) was 944.82 ± 1.5 kg/m3, the mass density ([2]; 293.15 K, x1 = 0.95) was 929.54 ± 1.4 kg/m3 and the mass density ([2]; 293.15 K, x1 = 1) was 913.31 ± 1.4 kg/m3. The mass density ([2]; 298.15 K, x1 = 0.05) was 1113.41 ± 1.9 kg/m3, the mass density ([2]; 298.15 K, x1 = 0.0996) was 1106.38 ± 1.9 kg/m3 and the mass density ([2]; 298.15 K, x1 = 0.1997) was 1091.4 ± 1.9 kg/m3. For the same molecule, the mass density ([2]; 298.15 K, x1 = 0.3) was 1075.16 ± 1.8 kg/m3, the mass density ([2]; 298.15 K, x1 = 0.4012) was 1057.31 ± 1.8 kg/m3 and the mass density ([2]; 298.15 K, x1 = 0.5) was 1038.25 ± 1.8 kg/m3. The mass density ([2]; 298.15 K, x1 = 0.6) was 1017.06 ± 1.7 kg/m3, the mass density ([2]; 298.15 K, x1 = 0.7) was 993.75 ± 1.6 kg/m3 and the mass density ([2]; 298.15 K, x1 = 0.8) was 968.09 ± 1.6 kg/m3. The mass density ([2]; 298.15 K, x1 = 0.9) was 939.77 ± 1.5 kg/m3, the mass density ([2]; 298.15 K, x1 = 0.95) was 924.43 ± 1.5 kg/m3 and the mass density ([2]; 298.15 K, x1 = 1) was 908.19 ± 1.5 kg/m3. For the same molecule, the mass density ([2]; 303.15 K, x1 = 0.05) was 1110.02 ± 2 kg/m3, the mass density ([2]; 303.15 K, x1 = 0.0996) was 1102.89 ± 2 kg/m3 and the mass density ([2]; 303.15 K, x1 = 0.1997) was 1087.69 ± 1.9 kg/m3. It also gave a mass density ([2]; 303.15 K, x1 = 0.3) of 1071.19 ± 1.9 kg/m3, a mass density ([2]; 303.15 K, x1 = 0.4012) of 1053.07 ± 1.9 kg/m3 and a mass density ([2]; 303.15 K, x1 = 0.5) of 1033.77 ± 1.8 kg/m3. It also gave a mass density ([2]; 303.15 K, x1 = 0.6) of 1012.39 ± 1.8 kg/m3, a mass density ([2]; 303.15 K, x1 = 0.7) of 988.93 ± 1.7 kg/m3 and a mass density ([2]; 303.15 K, x1 = 0.8) of 963.16 ± 1.6 kg/m3. It also gave a mass density ([2]; 303.15 K, x1 = 0.9) of 934.7 ± 1.6 kg/m3, a mass density ([2]; 303.15 K, x1 = 0.95) of 919.34 ± 1.6 kg/m3 and a mass density ([2]; 303.15 K, x1 = 1) of 903.11 ± 1.5 kg/m3.
In the case of OCCOCCO [diethylene glycol] + CCCOCCO, the “relative permittivity at zero frequency” value ([1]; 293.15 K, x2 = 0) is reported as 31.81 ± 0.04, the “relative permittivity at zero frequency” value ([1]; 298.15 K, x2 = 0) is reported as 30.95 ± 0.04 and the “relative permittivity at zero frequency” value ([1]; 303.15 K, x2 = 0) is reported as 30.03 ± 0.04. The mass density ([2]; 293.15 K, x2 = 0) was 1116.38 ± 1.7 kg/m3, the mass density ([2]; 298.15 K, x2 = 0) was 1113.03 ± 1.7 kg/m3 and the mass density ([2]; 303.15 K, x2 = 0) was 1109.47 ± 1.8 kg/m3.
In the case of OCCOCCOCCO [triethylene glycol] + CCCOCCO, the “relative permittivity at zero frequency” value ([1]; 293.15 K, x2 = 0) is reported as 23.69 ± 0.04, the “relative permittivity at zero frequency” value ([1]; 298.15 K, x2 = 0) is reported as 23.07 ± 0.04 and the “relative permittivity at zero frequency” value ([1]; 303.15 K, x2 = 0) is reported as 22.43 ± 0.04. It also gave a mass density ([2]; 293.15 K, x2 = 0) of 1123.74 ± 1.9 kg/m3, a mass density ([2]; 298.15 K, x2 = 0) of 1119.66 ± 1.9 kg/m3 and a mass density ([2]; 303.15 K, x2 = 0) of 1115.83 ± 2 kg/m3.
With CCCOCCO [2-propoxyethanol] the “relative permittivity at zero frequency” value ([3]; 293.15 K) was 11.76 ± 0.04, the “relative permittivity at zero frequency” value ([3]; 298.15 K) was 11.5 ± 0.04 and the “relative permittivity at zero frequency” value ([3]; 303.15 K) was 11.19 ± 0.04. The mass density ([4]; 293.15 K) was 913.31 ± 1.4 kg/m3, the mass density ([4]; 298.15 K) was 908.19 ± 1.5 kg/m3 and the mass density ([4]; 303.15 K) was 903.11 ± 1.5 kg/m3.
For OCCOCCO [diethylene glycol], the “relative permittivity at zero frequency” value ([3]; 293.15 K) was 31.81 ± 0.04, the “relative permittivity at zero frequency” value ([3]; 298.15 K) was 30.95 ± 0.04 and the “relative permittivity at zero frequency” value ([3]; 303.15 K) was 30.03 ± 0.04. It also gave a mass density ([4]; 293.15 K) of 1116.38 ± 1.7 kg/m3, a mass density ([4]; 298.15 K) of 1113.03 ± 1.7 kg/m3 and a mass density ([4]; 303.15 K) of 1109.47 ± 1.8 kg/m3.
In the case of OCCOCCOCCO [triethylene glycol], the “relative permittivity at zero frequency” value ([3]; 293.15 K) is reported as 23.69 ± 0.04, the “relative permittivity at zero frequency” value ([3]; 298.15 K) is reported as 23.07 ± 0.04 and the “relative permittivity at zero frequency” value ([3]; 303.15 K) is reported as 22.43 ± 0.04. It also gave a mass density ([4]; 293.15 K) of 1123.74 ± 1.9 kg/m3, a mass density ([4]; 298.15 K) of 1119.66 ± 1.9 kg/m3 and a mass density ([4]; 303.15 K) of 1115.83 ± 2 kg/m3.
